The values that follow come from patent US4361582A, “Aldose reductase inhibition by γ-oxo-8-fluoranthenebutanoic acid” (Ayerst, McKenna & Harrison Inc., priority 1981, dated 1982).

The structures appear in SMILES notation.

For experiment [1] the following is noted: Acheson et al., Gastroenterology, 37, 735 (1959); cited from earlier work.
Another experiment deals with lens aldose reductase (Bos taurus, UniProt P16116). The experiment in a line: in vitro aldose reductase inhibition test (modified Hayman and Kinoshita procedure). The experiment is classed as biochemical, bovine. As to conditions: statement in words. The source says: In the present case the procedure of Hayman and Kinoshita is modified in that the final chromatography step is omitted in the preparation of the enzyme from bovine lens.

As to `O=C(O)CCC(=O)c1ccc2c(c1)-c1cccc3cccc-2c13` [Florantyrone, γ-Oxo-8-fluoranthenebutanoic acid], the hydrocholeretic activity result in experiment [1] is reported as “has hydrocholeretic activity”. Moreover, the “inhibitor of lens aldose reductase” value against lens aldose reductase is “potent inhibitor of lens aldose reductase”.
